Experimental data taken from ChEMBL document CHEMBL1833885 (Bioorg Med Chem Lett, 2011).

biological target: Carbonic anhydrase 9 (Homo sapiens, UniProt Q16790)

SMILES	Ki [µM]
NS(=O)(=O)c1ccccc1C#Cc1ccccc1	6.37
Cc1ccc(C#Cc2ccccc2S(N)(=O)=O)cc1	8.6
NS(=O)(=O)c1ccccc1C#Cc1cccc(F)c1	8.45

Next, values leading:

Ki [µM]	SMILES
0.0065	COc1cccc(C#Cc2ccc(S(N)(=O)=O)cc2)c1
0.0058	NS(=O)(=O)c1ccc(C#Cc2cccc(F)c2)cc1

biological target: Carbonic anhydrase 1 (Homo sapiens, UniProt P00915); test: Inhibition of human carbonic anhydrase 1-catalyzed CO2 hydration activity by stopped flow assay
Sequence (P00915 whole entry): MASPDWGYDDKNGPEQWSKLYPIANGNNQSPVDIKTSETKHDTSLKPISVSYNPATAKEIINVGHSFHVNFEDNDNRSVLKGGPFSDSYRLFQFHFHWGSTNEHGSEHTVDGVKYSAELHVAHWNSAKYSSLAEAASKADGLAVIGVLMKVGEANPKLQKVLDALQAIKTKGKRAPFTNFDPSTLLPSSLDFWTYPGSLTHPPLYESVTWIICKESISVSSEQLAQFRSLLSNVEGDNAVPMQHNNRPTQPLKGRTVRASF

SMILES	Ki [µM]
Cc1ccc(C#Cc2ccccc2S(N)(=O)=O)cc1	674
NS(=O)(=O)c1ccccc1C#Cc1cccc(F)c1	416
